US20260200946A1, “KRAS(G12V) INHIBITORS” (Ranok Therapeutics (Hangzhou) Co. Ltd., priority 2022, published 2026)

What follows are molecules tested on NCIH727 cells (assay: Cancer cell line proliferation (CellTiter-Glo), NCI-H727). Conditions: Homo sapiens, 72 h, NCIH727 lung carcinoid, heterozygous G12V.
Assay type: cell-based
Description: Cell lines were cultured essentially according to ATCC recommendations.
SW620 and NCIH727 cells were plated in 384-well tissue culture plates at 1,000 cells/well and incubated at 37° C./5% CO2 for 72 hr in 40 μl of media. […] Each cell line was then treated with test compounds at various concentrations with a final concentration of 0.5% DMSO/well, and then incubated at 37° C./5% CO2 for 72 hr. 40 μl of CellTiter-Glo® Reagent (Promega Corporation, Madison, WI) was added to each well and processed according manufacturer's protocol. Results were analyzed and IC50 values were calculated in GraphPad 8.0 software.
Work on `C#Cc1c(F)ccc2cc(O)cc(-c3nc(OC)c4c(N5CC6CCC(C5)N6C(=O)NC(C)C(F)(F)F)nc(OCC5(CN6CC7CC7C6)CC5)nc4c3F)c12` (stereo not shown) [Example 163] yielded an EC50 of 100 to 1000 nM. `C#Cc1c(F)ccc2cc(O)cc(-c3nc(OC)c4c(N5CC6CCC(C5)N6C(=O)[C@H]5C[C@@H]5F)nc(OCC5(CN6CCC(F)CC6)CC5)nc4c3F)c12` [Example 78] gave an EC50 of 100 to 1000 nM. `C#Cc1c(F)ccc2cc(O)cc(-c3nc(OC)c4c(N5CC6CCC(C5)N6C(=O)[C@H]5CC5(F)F)nc(OCC5(CN6CC7CC7C6)CC5)nc4c3F)c12` (stereo partly shown) [Example 102] was tested, and the EC50 was < 100 nM. `C#Cc1c(F)ccc2cc(O)cc(-c3nc(OC)c4c(N5CC6CCC(C5)N6C(=O)C5CC(F)(F)C5(F)F)nc(OCC5(CN6CC7CC7C6)CC5)nc4c3F)c12` (stereo not shown) [Example 167] was tested, and the EC50 was > 1000 nM. `C#CCC(C#N)C(=O)N1C2CCC1CN(c1nc(OCC3(CN4CC5CC5C4)CC3)nc3c(F)c(-c4cc(O)cc5ccc(F)c(C#C)c45)nc(OC)c13)C2` (stereo not shown) [Example 146] showed an EC50 of 100 to 1000 nM. In the case of `C#Cc1c(F)ccc2cc(O)cc(-c3nc(OC)c4c(N5CC6CCC(C5)N6C(=O)C(C#N)CC)nc(OCC5(CN6CC7CC7C6)CC5)nc4c3F)c12` (stereo not shown) [Example 126], the EC50 is reported as 100 to 1000 nM. In the case of `C#Cc1c(F)ccc2cc(O)cc(-c3nc(OC)c4c(N5CC6CCC(C5)N6C(=O)NC56CC(C#N)(C5)C6)nc(OCC5(CN6CC7CC7C6)CC5)nc4c3F)c12` (stereo not shown) [Example 194], the EC50 is reported as 100 to 1000 nM. `C#Cc1c(F)ccc2cc(O)cc(-c3nc(OC)c4c(N5CC6CCC(C5)N6C(=O)C(C#N)CC5CC5)nc(OCC5(CN6CC7CC7C6)CC5)nc4c3F)c12` (stereo not shown) [Example 186] was tested, and the EC50 was > 1000 nM. For `C#Cc1c(F)ccc2cc(O)cc(-c3nc(OC)c4c(N5CC6CCC(C5)N6C(=O)C5CNC(=O)C5)nc(OCC5(CN6CC7CC7C6)CC5)nc4c3F)c12` (stereo not shown) [Example 149], the EC50 was > 1000 nM. With `C#Cc1c(F)ccc2cc(O)cc(-c3nc(OC)c4c(N5CC6CCC(C5)N6C(=O)NCC(C)(C)F)nc(OCC5(CN6CCC(F)CC6)CC5)nc4c3F)c12` [Example 67] the EC50 was 100 to 1000 nM. For `C#Cc1c(F)ccc2cc(O)cc(-c3nc(OC)c4c(N5CC6CCC(C5)N6C(=O)N(C)CC(F)(F)F)nc(OCC5(CN6CC7CC7C6)CC5)nc4c3F)c12` (stereo not shown) [Example 159], the EC50 was 100 to 1000 nM. In the case of `C#Cc1c(F)ccc2cc(O)cc(-c3nc(OC)c4c(N5CC6CCC(C5)N6C(=O)NC5COC5)nc(OCC5(CN6CC7CC7C6)CC5)nc4c3F)c12` (stereo not shown) [Example 199], the EC50 is reported as < 100 nM. In the case of `C#Cc1c(F)ccc2cc(O)cc(-c3nc(OC)c4c(N5CC6CCC(C5)N6C(=O)NC(C#N)C(N)=O)nc(OCC5(CN6CC7CC7C6)CC5)nc4c3F)c12` (stereo not shown) [Example 189], the EC50 is reported as > 1000 nM. `C#CCNC(=O)N1C2CCC1CN(c1nc(OCC3(CN4CCC(F)CC4)CC3)nc3c(F)c(-c4cc(O)cc5ccc(F)c(C#C)c45)nc(C#C)c13)C2` [Example 96] showed an EC50 of 100 to 1000 nM. `C#Cc1c(F)ccc2cc(O)cc(-c3nc(OC)c4c(N5CC6CCC(C5)N6C(=O)C(C)=O)nc(OCC5(CN6CC7CC7C6)CC5)nc4c3F)c12` (stereo not shown) [Example 124] showed an EC50 of 100 to 1000 nM. With `C#Cc1c(F)ccc2cc(O)cc(-c3nc(OC)c4c(N5CC6CCC(C5)N6CC5COC5)nc(OCC5(CN6CCC(F)CC6)CC5)nc4c3F)c12` [Example 70] the EC50 was > 1000 nM. `C#Cc1c(F)ccc2cc(O)cc(-c3nc(OC)c4c(N5CC6CCC(C5)N6C(=O)N5CC6CC6C5)nc(OCC5(CN6CC7CC7C6)CC5)nc4c3F)c12` (stereo not shown) [Example 143] gave an EC50 of 100 to 1000 nM. `C#Cc1c(F)ccc2cc(O)cc(-c3nc(OC)c4c(N5CC6CCC(C5)N6C(=O)CCCC#N)nc(OCC5(CN6CC7CC7C6)CC5)nc4c3F)c12` (stereo not shown) [Example 113] gave an EC50 of 100 to 1000 nM. With `C#Cc1c(F)ccc2cc(O)cc(-c3nc(OC)c4c(N5CC6CCC(C5)N6C(=O)NCC(F)(F)F)nc(OCC5(CN6CCC(C(F)(F)F)CC6)CC5)nc4c3F)c12` [Example 136] the EC50 was < 100 nM. `C#Cc1c(F)ccc2cc(O)cc(-c3nc(C#C)c4c(N5CC6CCC(C5)N6C(=O)NCC(F)(F)F)nc(OCC5(CN6CCC(F)CC6)CC5)nc4c3F)c12` [Example 100] gave an EC50 of 100 to 1000 nM. In the case of `C#Cc1c(F)ccc2cc(O)cc(-c3nc(OC)c4c(N5CC6CCC(C5)N6C(=O)C5CN(C)C5)nc(OCC5(CN6CC7CC7C6)CC5)nc4c3F)c12` (stereo not shown) [Example 151], the EC50 is reported as > 1000 nM. For `C#Cc1c(F)ccc2cc(O)cc(-c3nc(OC)c4c(N5CC6CCC(C5)N6C(=O)N[C@H]5C[C@@H](C#N)C5)nc(OCC5(CN6CC7CC7C6)CC5)nc4c3F)c12` (stereo partly shown) [Example 190], the EC50 was 100 to 1000 nM. Work on `C#Cc1c(F)ccc2cc(O)cc(-c3nc(OC)c4c(N5CC6CCC(C5)N6C(=O)NCC(F)(F)CO)nc(OCC5(CN6CCC(F)CC6)CC5)nc4c3F)c12` [Example 76] yielded an EC50 of 100 to 1000 nM. `C#Cc1c(F)ccc2cc(O)cc(-c3nc(OC)c4c(N5CC6CCC(C5)N6C(=O)c5cocn5)nc(OCC5(CN6CC7CC7C6)CC5)nc4c3F)c12` (stereo not shown) [Example 153] was tested, and the EC50 was 100 to 1000 nM. `C#Cc1c(F)ccc2cc(O)cc(-c3nc(OC)c4c(N5CC6CCC(C5)N6C(=O)N[C@H]5CCC(F)(F)C5)nc(OCC5(CN6CCC(F)CC6)CC5)nc4c3F)c12` [Example 81] was tested, and the EC50 was < 100 nM. `C#Cc1c(F)ccc2cc(O)cc(-c3nc(OC)c4c(N5CC6CCC(C5)N6C(=O)CC(C)C(F)(F)F)nc(OCC5(CN6CC7CC7C6)CC5)nc4c3F)c12` (stereo not shown) [Example 181] gave an EC50 of 100 to 1000 nM. For `C#Cc1c(F)ccc2cc(O)cc(-c3nc(OC)c4c(N5CC6CCC(C5)N6C(=O)OC(C)(C)C#N)nc(OCC5(CN6CC7CC7C6)CC5)nc4c3F)c12` (stereo not shown) [Example 111], the EC50 was < 100 nM. `C#Cc1c(F)ccc2cc(O)cc(-c3nc(OC)c4c(N5CC6CCC(C5)N6C(=O)C56CC(F)(C5)C6)nc(OCC5(CN6CC7CC7C6)CC5)nc4c3F)c12` (stereo not shown) [Example 185] gave an EC50 of 100 to 1000 nM. For `C#Cc1c(F)ccc2cc(O)cc(-c3nc(OC)c4c(N5CC6CCC(C5)N6C(=O)NCC5(F)COC5)nc(OCC5(CN6CCC(F)CC6)CC5)nc4c3F)c12` [Example 75], the EC50 was 100 to 1000 nM. Molecule `C#Cc1c(F)ccc2cc(O)cc(-c3nc(OC)c4c(N5CC6CCC(C5)N6C(=O)C(CC#N)CC#N)nc(OCC5(CN6CC7CC7C6)CC5)nc4c3F)c12` (stereo not shown) [Example 131] has an EC50 of 100 to 1000 nM. `C#Cc1c(F)ccc2cc(O)cc(-c3nc(OC)c4c(N5CC6CCC(C5)N6C(=O)COC(F)(F)F)nc(OCC5(CN6CC7CC7C6)CC5)nc4c3F)c12` (stereo not shown) [Example 138] was tested, and the EC50 was 100 to 1000 nM. In the case of `C#Cc1c(F)ccc2cc(O)cc(-c3nc(OC)c4c(N5CC6CCC(C5)N6C(=O)CCN(C)C)nc(OCC5(CN6CC7CC7C6)CC5)nc4c3F)c12` (stereo not shown) [Example 107], the EC50 is reported as > 1000 nM. With `C#Cc1c(F)ccc2cc(O)cc(-c3nc(OC)c4c(N5CC6CCC(C5)N6C(=O)C5C[C@H]5C#N)nc(OCC5(CN6CCC(F)CC6)CC5)nc4c3F)c12` (stereo partly shown) [Example 80] the EC50 was < 100 nM. Molecule `C#Cc1c(F)ccc2cc(O)cc(-c3nc(OC)c4c(N5CC6CCC(C5)N6C(=O)C5CC(F)(C(C)C)C5)nc(OCC5(CN6CC7CC7C6)CC5)nc4c3F)c12` (stereo not shown) [Example 150] has an EC50 of 100 to 1000 nM. In the case of `C#Cc1c(F)ccc2cc(O)cc(-c3nc(OC)c4c(N5CC6CCC(C5)N6C(=O)Nc5ccc6c(c5)CCO6)nc(OCC5(CN6CCC(F)CC6)CC5)nc4c3F)c12` [Example 97], the EC50 is reported as 100 to 1000 nM. For `C#Cc1c(F)ccc2cc(O)cc(-c3nc(OC)c4c(N5CC6CCC(C5)N6C)nc(OCC5(CN6CCC(C(F)(F)F)CC6)CC5)nc4c3F)c12` [Example 142], the EC50 was > 1000 nM. Molecule `C#Cc1c(F)ccc2cc(O)cc(-c3nc(OC)c4c(N5CC6CCC(C5)N6C(=O)N[C@@H]5CCC(F)(F)C5)nc(OCC5(CN6CCC(F)CC6)CC5)nc4c3F)c12` [Example 82] has an EC50 of 100 to 1000 nM. `C#Cc1c(F)ccc2cc(O)cc(-c3nc(OC)c4c(N5CC6CCC(C5)N6C(=O)NC56CC(C5)C6)nc(OCC5(CN6CC7CC7C6)CC5)nc4c3F)c12` (stereo not shown) [Example 198] was tested, and the EC50 was < 100 nM. For `C#Cc1c(F)ccc2cc(O)cc(-c3nc(OC)c4c(N5CC6CCC(C5)N6C(=O)NNC)nc(OCC5(CN6CC7CC7C6)CC5)nc4c3F)c12` (stereo not shown) [Example 182], the EC50 was 100 to 1000 nM. For `C#Cc1c(F)ccc2cc(O)cc(-c3nc(C#C)c4c(N5CC6CCC(C5)N6C(=O)CCC#N)nc(OCC5(CN6CCC(F)CC6)CC5)nc4c3F)c12` [Example 103], the EC50 was 100 to 1000 nM. With `C#Cc1c(F)ccc2cc(O)cc(-c3nc(OC)c4c(N5CC6CCC(C5)N6C(=O)N5CC(OC(F)(F)F)C5)nc(OCC5(CN6CC7CC7C6)CC5)nc4c3F)c12` (stereo not shown) [Example 175] the EC50 was 100 to 1000 nM. In the case of `C#Cc1c(F)ccc2cc(O)cc(-c3nc(OC)c4c(N5CC6CCC(C5)N6C(=O)CC(C)(C)C#N)nc(OCC5(CN6CC7CC7C6)CC5)nc4c3F)c12` (stereo not shown) [Example 148], the EC50 is reported as < 100 nM. For `C#Cc1c(F)ccc2cc(O)cc(-c3nc(OC)c4c(N5CC6CCC(C5)N6C)nc(OCC5(CN6CC7CC7C6)CC5)nc4c3F)c12` (stereo not shown) [Example 137], the EC50 was > 1000 nM. With `C#Cc1c(F)ccc2cc(N)cc(-c3nc(OC)c4c(N5CC6CCC(C5)N6C(=O)C[C@@H](O)C(F)(F)F)nc(OCC5(CN6CC7CC7C6)CC5)nc4c3F)c12` (stereo partly shown) [Example 171] the EC50 was 100 to 1000 nM. Work on `C#Cc1c(F)ccc2cc(O)cc(-c3nc(OC)c4c(N5CC6CCC(C5)N6C(=O)NC56CC(C(F)(F)F)(C5)C6)nc(OCC5(CN6CC7CC7C6)CC5)nc4c3F)c12` (stereo not shown) [Example 184] yielded an EC50 of 100 to 1000 nM. For `C#Cc1c(F)ccc2cc(O)cc(-c3nc(OC)c4c(N5CC6CCC(C5)N6C(C)=O)nc(OCC5(CN6CC7CC7C6)CC5)nc4c3F)c12` (stereo not shown) [Example 120], the EC50 was 100 to 1000 nM. In the case of `C#CCNC(=O)N1C2CCC1CN(c1nc(OCC3(CN4CCC(F)CC4)CC3)nc3c(F)c(-c4cc(O)cc5ccc(F)c(C#C)c45)nc(OC)c13)C2` [Example 88], the EC50 is reported as < 100 nM.

Same assay, conditions: Homo sapiens, NCIH727 lung carcinoid, heterozygous G12V, 72 hr
`C#Cc1c(F)ccc2cc(O)cc(-c3nc(OC)c4c(N5CC6CCC(C5)N6C(=O)OCC(F)(F)F)nc(OCC5(CN6CC7CC7C6)CC5)nc4c3F)c12` (stereo not shown) [Example 162] was tested, and the EC50 was 100 to 1000 nM.

Same assay, conditions: NCIH727 lung carcinoid, heterozygous G12V, 72 hr
In the case of `C#Cc1c(F)ccc2cc(O)cc(-c3nc(OC)c4c(N5CC6CCC(C5)N6C(=O)C5C[C@H]5C#N)nc(OCC5(CN6CCC(F)CC6)CC5)nc4c3F)c12` (stereo partly shown) [Example 84], the EC50 is reported as < 100 nM.
